Laboratory results: patent US11806342B2, “Diiodohydroxyquinoline for the treatment of clostridium difficile infection” (Purdue Research Foundation, priority 2019, dated 2023)
≈ marks a conversion by molar mass, not a printed value. Where two headings read alike, the source gives them in different places.

Experiments:
[1] = test system: C. difficile P8; experiment: MIC and MBC, broth microdilution; format: cell-based, Clostridium difficile; details: Clostridioides difficile, C. difficile P8
Procedure: (§1) MIC50 and MIC90 are the minimum concentration of each agent that inhibited growth of 50% and 90% of the tested isolates, respectively. The minimum bactericidal concentration (MBC) of these drugs was tested by plating 5 μL from wells with no growth onto BHIS agar plates. The MBC was categorized as the lowest concentration that reduced bacterial growth by 99.9% MIC50 and MIC90 are the minimum concentration of each agent that inhibited the growth of 50% and 90% of the tested isolates, respectively. The minimum bactericidal concentration (MBC) of these drugs was tested by plating 5 μL from wells with no growth onto BHIS agar plates. The MBC was categorized as the lowest concentration that reduced bacterial growth by 99.9% [29-31].

[2] = test system: C. difficile HM-89; experiment: MIC and MBC, broth microdilution; format: cell-based, Clostridium difficile; details: Clostridioides difficile, HM89, C. difficile HM-89
Procedure: as §1

[3] = test system: C. difficile I4; experiment: MIC and MBC, broth microdilution; format: cell-based, Clostridium difficile; details: Clostridioides difficile, C. difficile I4
Procedure: as §1

[4] = test system: C. difficile ATCC 43598; experiment: MIC and MBC, broth microdilution; format: cell-based, Clostridium difficile; details: Clostridioides difficile, ATCC43598, C. difficile ATCC 43598
Procedure: as §1

[5] = test system: C. difficile P11; experiment: MIC and MBC, broth microdilution; format: cell-based, Clostridium difficile; details: Clostridioides difficile, C. difficile P11
Procedure: as §1

[6] = test system: C. difficile I2; experiment: MIC and MBC, broth microdilution; format: cell-based, Clostridium difficile; details: Clostridioides difficile, C. difficile I2
Procedure: as §1

[7] = test system: C. difficile ATCC BAA-1870; experiment: MIC and MBC, broth microdilution; format: cell-based, Clostridium difficile; details: Clostridioides difficile, ATCCBAA1870, C. difficile ATCC BAA-1870
Procedure: as §1

[8] = test system: C. difficile P2; experiment: MIC and MBC, broth microdilution; format: cell-based, Clostridium difficile; details: Clostridioides difficile, C. difficile P2
Procedure: as §1

[9] = test system: C. difficile P7; experiment: MIC and MBC, broth microdilution; format: cell-based, Clostridium difficile; details: Clostridioides difficile, C. difficile P7
Procedure: as §1

[10] = test system: C. difficile NR-49284; experiment: MIC and MBC, broth microdilution; format: cell-based, Clostridium difficile; details: Clostridioides difficile, NR49284, C. difficile NR-49284
Procedure: as §1

[11] = test system: C. difficile NR-49290; experiment: MIC and MBC, broth microdilution; format: cell-based, Clostridium difficile; details: Clostridioides difficile, NR49290, C. difficile NR-49290
Procedure: as §1

[12] = test system: C. difficile NR-49286; experiment: MIC and MBC, broth microdilution; format: cell-based, Clostridium difficile; details: Clostridioides difficile, NR49286, C. difficile NR-49286
Procedure: as §1

[13] = test system: C. difficile P13; experiment: MIC and MBC, broth microdilution; format: cell-based, Clostridium difficile; details: Clostridioides difficile, C. difficile P13
Procedure: as §1

[14] = test system: C. difficile P24; experiment: MIC and MBC, broth microdilution; format: cell-based, Clostridium difficile; details: Clostridioides difficile, C. difficile P24
Procedure: as §1

[15] = test system: C. difficile ATCC 9689; experiment: MIC and MBC, broth microdilution; format: cell-based, Clostridium difficile; details: Clostridioides difficile, ATCC9689, C. difficile ATCC 9689
Procedure: as §1

[16] = test system: C. difficile ATCC 700057; experiment: MIC and MBC, broth microdilution; format: cell-based, Clostridium difficile; details: Clostridioides difficile, ATCC700057, C. difficile ATCC 700057
Procedure: as §1

[17] = test system: C. difficile I1; experiment: MIC and MBC, broth microdilution; format: cell-based, Clostridium difficile; details: Clostridioides difficile, C. difficile I1
Procedure: as §1

[18] = test system: C. difficile NR-49281; experiment: MIC and MBC, broth microdilution; format: cell-based, Clostridium difficile; details: Clostridioides difficile, NR49281, C. difficile NR-49281
Procedure: as §1

[19] = test system: C. difficile P1; experiment: MIC and MBC, broth microdilution; format: cell-based, Clostridium difficile; details: Clostridioides difficile, C. difficile P1
Procedure: as §1

[20] = test system: C. difficile NR-49277; experiment: MIC and MBC, broth microdilution; format: cell-based, Clostridium difficile; details: Clostridioides difficile, NR49277, C. difficile NR-49277
Procedure: as §1

[21] = test system: Bacteroides fragilis HM-714; experiment: MIC against normal gut microflora, broth microdilution; format: cell-based; details: HM714; Bacteroides fragilis HM-714; read-out: MIC
How it was run: (§2)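 A 0.5 McFarland bacterial suspension is diluted […] to approximately 5×10^5 CFU/mL. Drugs are then added and serially diluted along the plates.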

[22] = test system: Bifidobacterium adolescentis HM-633; experiment: as above; format: cell-based; details: HM633; Bifidobacterium adolescentis HM-633; read-out: MIC
How it was run: as §2

[23] = test system: Bacteroides dorei HM-719; experiment: as above; format: cell-based; details: Phocaeicola dorei, HM719; Bacteroides dorei HM-719; read-out: MIC
How it was run: as §2

[24] = test system: Lactobacillus reuteri HM-102; experiment: as above; format: cell-based; details: Lactobacillus reuteri HM-102
How it was run: as §2

[25] = test system: Bacteroides dorei HM-29; experiment: as above; format: cell-based; details: Phocaeicola dorei, HM29; Bacteroides dorei HM-29; read-out: MIC
How it was run: as §2

[26] = test system: Bifidobacterium longum HM-845; experiment: as above; format: cell-based; details: HM845; Bifidobacterium longum HM-845; read-out: MIC
How it was run: as §2

[27] = test system: Bacteroides fragilis HM-710; experiment: as above; format: cell-based; details: HM710; Bacteroides fragilis HM-710; read-out: MIC
How it was run: as §2

[28] = test system: Lactobacillus casei ATCC 334; experiment: as above; format: cell-based; details: Lacticaseibacillus casei, ATCC334; Lactobacillus casei ATCC 334; read-out: MIC
How it was run: as §2

## Oc1c(I)cc(I)c2cccnc12 [DIHQ, 5,7-diiodoquinolin-8-ol]
[1]; read-out: MBC
  MBC: 0.125 µg/mL (≈ 0.315 µM)
[1]; read-out: MIC
  MIC: 0.125 µg/mL (≈ 0.315 µM)
[2]; read-out: MBC
  MBC: 1 µg/mL (≈ 2.52 µM)
[2]; read-out: MIC
  MIC: 1 µg/mL (≈ 2.52 µM)
[3]; read-out: MBC
  MBC: 1 µg/mL (≈ 2.52 µM)
[3]; read-out: MIC
  MIC: 1 µg/mL (≈ 2.52 µM)
[4]; read-out: MBC
  MBC: 1 µg/mL (≈ 2.52 µM)
[4]; read-out: MIC
  MIC: 1 µg/mL (≈ 2.52 µM)
[5]; read-out: MBC
  MBC: 0.25 µg/mL (≈ 0.63 µM)
[5]; read-out: MIC
  MIC: 0.25 µg/mL (≈ 0.63 µM)
[6]; read-out: MBC
  MBC: 2 µg/mL (≈ 5.04 µM)
[6]; read-out: MIC
  MIC: 2 µg/mL (≈ 5.04 µM)
[7]; read-out: MBC
  MBC: 1 µg/mL (≈ 2.52 µM)
[7]; read-out: MIC
  MIC: 1 µg/mL (≈ 2.52 µM)
[8]; read-out: MBC
  MBC: 0.25 µg/mL (≈ 0.63 µM)
[8]; read-out: MIC
  MIC: 0.25 µg/mL (≈ 0.63 µM)
[9]; read-out: MBC
  MBC: 0.5 µg/mL (≈ 1.26 µM)
[9]; read-out: MIC
  MIC: 0.5 µg/mL (≈ 1.26 µM)
[10]; read-out: MBC
  MBC: 0.125 µg/mL (≈ 0.315 µM)
[10]; read-out: MIC
  MIC: 0.125 µg/mL (≈ 0.315 µM)
[11]; read-out: MBC
  MBC: 0.5 µg/mL (≈ 1.26 µM)
[11]; read-out: MIC
  MIC: 0.25 µg/mL (≈ 0.63 µM)
[12]; read-out: MBC
  MBC: 0.5 µg/mL (≈ 1.26 µM)
[12]; read-out: MIC
  MIC: 0.25 µg/mL (≈ 0.63 µM)
[13]; read-out: MBC
  MBC: 0.5 µg/mL (≈ 1.26 µM)
[13]; read-out: MIC
  MIC: 0.5 µg/mL (≈ 1.26 µM)
[14]; read-out: MBC
  MBC: 2 µg/mL (≈ 5.04 µM)
[14]; read-out: MIC
  MIC: 1 µg/mL (≈ 2.52 µM)
[15]; read-out: MBC
  MBC: 0.25 µg/mL (≈ 0.63 µM)
[15]; read-out: MIC
  MIC: 0.125 µg/mL (≈ 0.315 µM)
[16]; read-out: MBC
  MBC: 0.5 µg/mL (≈ 1.26 µM)
[16]; read-out: MIC
  MIC: 0.5 µg/mL (≈ 1.26 µM)
[17]; read-out: MBC
  MBC: 1 µg/mL (≈ 2.52 µM)
[17]; read-out: MIC
  MIC: 1 µg/mL (≈ 2.52 µM)
[18]; read-out: MBC
  MBC: 0.25 µg/mL (≈ 0.63 µM)
[18]; read-out: MIC
  MIC: 0.25 µg/mL (≈ 0.63 µM)
[19]; read-out: MBC
  MBC: 0.5 µg/mL (≈ 1.26 µM)
[19]; read-out: MIC
  MIC: 0.5 µg/mL (≈ 1.26 µM)
[20]; read-out: MBC
  MBC: 0.5 µg/mL (≈ 1.26 µM)
[20]; read-out: MIC
  MIC: 0.5 µg/mL (≈ 1.26 µM)
[21]
  MIC: > 128 µg/mL
[22]
  MIC: 128 µg/mL (≈ 322 µM)
[23]
  MIC: > 128 µg/mL
[24]
  MIC: >128 µg/mL
[24]; Limosilactobacillus reuteri, HM102, read-out: MIC
  MIC: > 128 µg/mL
[25]
  MIC: > 128 µg/mL
[26]
  MIC: 64 µg/mL (≈ 161 µM)
[27]
  MIC: > 128 µg/mL
[28]
  MIC: 16 µg/mL (≈ 40.3 µM)
